Test results from patent US20230210999A1, “TARGETED PROTEASE DEGRADATION (TED) PLATFORM” (EUBULUS BIOTHERAPEUTICS INC., priority 2020, published 2023).
Where two headings read alike, the source gives them in different places.

Experiments:
Format in all cases: cell-based, human
MV4;11 cells = assay: Cell proliferation experiment (Alamar blue, 72 h), MV4;11; settings: Homo sapiens
Method: (§1) Reagents: RPMI-1640 medium, McCoy's 5A medium, IMDM medium, MEM medium, L-15 medium, fetal bovine serum. Penicillin-Streptomycin double antibody, trypsin, etc., 2-mercaptoethanol, NEAA, pyruvate, etc.
(§2) The cells were cultured in conventional ways, and the cells should be passed at least 2 generations before plating. Cells at the logarithmic growth phase were collected, prepared into single cell suspensions and counted. The concentration of cells was adjusted to the desired concentration, and cells were inoculated into a 96-well cell culture plate at 100 μl per well. 100 μL of complete medium of the test compound were added to each well, set up 2 duplicate wells for each concentration, and diluted with a 5-fold gradient, and continued to culture for 72 h. All cells were subjected to IC50 test for corresponding samples. The experimental results are shown in Test Example 4.
(§3) The fluorescence intensity of each well was detected using the Alarm blue method, and IC50 was calculated.
(§4) IC50 was calculated according to the following formula:
(§5) Y=Max+(Min−Max)/[1+(X/IC50)×Slope]
(§6) wherein Min, Max and Slope represent the minimum, maximum and slope respectively.

Daudi cells = assay: Cell proliferation experiment, Daudi; settings: Homo sapiens, Daudi, Daudi cells; read-out: Inhibitory activity IC50 on Daudi
Method: as §1, §2, §3, §4, §5, §6

NCIH82 cells = assay: Cell proliferation experiment, NCI-H82; settings: Homo sapiens, NCI-H82, NCI-H82 cells; read-out: Inhibitory activity IC50 on NCI-H82
Method: as §1, §2, §3, §4, §5, §6

[1] = MV4-11, MV4;11 cells, read-out: Inhibitory activity IC50 on MV4;11

| Structure (SMILES) | IC50 (MV4;11 cells; MV4-11, 72 h, MV4;11 cells, 72 h, read-out: Inhibitory activity IC50 of tested compounds on MV4;11 cells) | IC50 (Daudi cells) | IC50 (MV4;11 cells; [1]) | IC50 (NCIH82 cells) |
| --- | --- | --- | --- | --- |
| O=C1CCC(N2Cc3c(C#CCNCCOCCOCCOCCNC(=O)[C@H]4CC[C@H](Oc5cccc(Cl)c5F)CC4Cc4cccc(Nc5nccs5)n4)cccc3C2=O)C(=O)N1 (some centres unmarked) [Compound 860] | > 1000 nM | – | – | – |
| CC[C@@H]1C(=O)N(C)c2cnc(Nc3ccc(-c4cn(CCCOCCCNCCC#Cc5cccc6c5CN(C5CCC(=O)NC5=O)C6=O)nn4)cc3OC)nc2N1C1CCCC1 (some centres unmarked) [UB-180938] | – | 10 to 100 nM | 10 to 100 nM | – |
| O=C1CCC(N2Cc3c(C#CCCNCCOCCn4cc(-c5ccc(Nc6ncc7c(n6)-c6ccc(Cl)cc6C(c6c(F)cccc6F)=NC7)cc5)nn4)cccc3C2=O)C(=O)N1 (centres unmarked) [UB-180944] | – | > 1000 nM | 100 to 1000 nM | > 1000 nM |
| O=C1CCC(N2Cc3c(NC(=O)CNCCOCCN4CCC(n5cc(-c6ccc(Nc7ncc8c(n7)-c7ccc(Cl)cc7C(c7c(F)cccc7F)=NC8)cc6)nn5)CC4)cccc3C2=O)C(=O)N1 (centres unmarked) [UB-180945] | – | > 1000 nM | 100 to 1000 nM | > 1000 nM |
| O=C1CCC(N2Cc3c(C#CCCNCCCOCCCn4cc(-c5ccc(Nc6ncc7c(n6)-c6ccc(Cl)cc6C(c6c(F)cccc6F)=NC7)cc5)nn4)cccc3C2=O)C(=O)N1 (centres unmarked) [UB-180946] | – | > 1000 nM | 100 to 1000 nM | 100 to 1000 nM |
| O=C1CCC(N2Cc3cc(NC(=O)CCOCCOCCOCCNC(=O)c4ccc(Nc5ncc6c(n5)-c5ccc(Cl)cc5C(c5c(F)cccc5F)=NC6)cc4)ccc3C2=O)C(=O)N1 (centres unmarked) [UB-180947] | – | 100 to 1000 nM | 10 to 100 nM | > 1000 nM |
| O=C1CCC(N2Cc3cc(NC(=O)CCOCCOCCOCCNC(=O)[C@]4(Cc5cccc(Nc6nccs6)n5)CC[C@@H](Oc5cccc(Cl)c5F)CC4)ccc3C2=O)C(=O)N1 (some centres unmarked) [UB-180948] | – | > 1000 nM | 10 to 100 nM | > 1000 nM |
| CCNC(=O)C#Cc1ccc2c(c1)NC(=O)/C2=C(\Nc1ccc(CNCCOCCOCCC(=O)N[C@H](C(=O)N2C[C@H](O)C[C@H]2C(=O)NCc2ccc(-c3scnc3C)cc2)C(C)(C)C)cc1)c1ccccc1 [UB-180951] | – | > 1000 nM | 100 to 1000 nM | 100 to 1000 nM |
| CCNC(=O)C=C(Cl)c1ccc2c(c1)NC(=O)/C2=C(\Nc1ccc(CNCCOCCOCCOCCOCCC(=O)Nc2cccc3c2CN(C2CCC(=O)NC2=O)C3=O)cc1)c1ccccc1 (centres unmarked) [UB-180952] | – | > 1000 nM | > 1000 nM | > 1000 nM |
| O=C1CCC(N2Cc3cc(NC(=O)CNCCOCCOCCOCCNC(=O)[C@]4(Cc5cccc(Nc6nccs6)n5)CC[C@@H](Oc5cccc(Cl)c5F)CC4)ccc3C2=O)C(=O)N1 (some centres unmarked) [UB-180953] | – | > 1000 nM | 100 to 1000 nM | > 1000 nM |
| O=C1CCC(N2Cc3cc(NC(=O)CNCCOCCOCCOCCNC(=O)c4ccc(Nc5ncc6c(n5)-c5ccc(Cl)cc5C(c5c(F)cccc5F)=NC6)cc4)ccc3C2=O)C(=O)N1 (centres unmarked) [UB-180954] | – | > 1000 nM | 100 to 1000 nM | > 1000 nM |
| CCNC(=O)C#Cc1ccc2c(c1)NC(=O)/C2=C(\Nc1ccc(CNCCOCCOCCOCCOCCC(=O)N[C@H](C(=O)N2C[C@H](O)C[C@H]2C(=O)NCc2ccc(-c3scnc3C)cc2)C(C)(C)C)cc1)c1ccccc1 [UB-180955] | – | > 1000 nM | 100 to 1000 nM | > 1000 nM |
| CCNC(=O)C#Cc1ccc2c(c1)NC(=O)/C2=C(\Nc1ccc(CNCCOCCOCCOCCOCCC(=O)Nc2cccc3c2CN(C2CCC(=O)NC2=O)C3=O)cc1)c1ccccc1 (centres unmarked) [UB-180956] | – | > 1000 nM | 100 to 1000 nM | > 1000 nM |
| CCNC(=O)C#Cc1ccc2c(c1)NC(=O)/C2=C(\Nc1ccc(CNCCOCCOCCOCCOCC(=O)N[C@H](C(=O)N2C[C@H](O)C[C@H]2C(=O)NCc2ccc(-c3scnc3C)cc2)C(C)(C)C)cc1)c1ccccc1 [UB-180958] | – | > 1000 nM | 100 to 1000 nM | > 1000 nM |
| O=C1CCC(N2Cc3c(NC(=O)CCOCCOCCN[C@H]4CC[C@@H](NC(=O)c5ccc(Nc6ncc7c(n6)-c6ccc(Cl)cc6C(c6c(F)cccc6F)=NC7)cc5)CC4)cccc3C2=O)C(=O)N1 (some centres unmarked) [UB-180959] | – | > 1000 nM | 100 to 1000 nM | > 1000 nM |
| O=C1CCC(N2Cc3cc(NC(=O)CCOCCOCCN[C@H]4CC[C@@H](NC(=O)c5ccc(Nc6ncc7c(n6)-c6ccc(Cl)cc6C(c6c(F)cccc6F)=NC7)cc5)CC4)ccc3C2=O)C(=O)N1 (some centres unmarked) [UB-180960] | – | > 1000 nM | 100 to 1000 nM | > 1000 nM |

| Structure (SMILES) | IC50 (MV4;11 cells; MV4-11, 72 h, MV4;11 cells, 72 h, read-out: Inhibitory activity IC50 of tested compounds on MV4;11 cells) | IC50 (Daudi cells) | IC50 (MV4;11 cells; [1]) | IC50 (NCIH82 cells) |
| --- | --- | --- | --- | --- |
| CCNC(=O)C#Cc1ccc2c(c1)NC(=O)/C2=C(\Nc1ccc(CNCCOCCOCCOCCOCC(=O)Nc2cccc3c2CN(C2CCC(=O)NC2=O)C3=O)cc1)c1ccccc1 (centres unmarked) [UB-180962] | – | > 1000 nM | 100 to 1000 nM | > 1000 nM |
| CCNC(=O)C#Cc1ccc2c(c1)NC(=O)/C2=C(\Nc1ccc(CNCCOCCOCCOCCOCC(=O)Nc2ccc3c(c2)CN(C2CCC(=O)NC2=O)C3=O)cc1)c1ccccc1 (centres unmarked) [UB-180963] | – | > 1000 nM | 10 to 100 nM | > 1000 nM |
| CCNC(=O)C#Cc1ccc2c(c1)NC(=O)/C2=C(\Nc1ccc(CNCCOCCOCCC(=O)Nc2cccc3c2CN(C2CCC(=O)NC2=O)C3=O)cc1)c1ccccc1 (centres unmarked) [UB-180964] | – | > 1000 nM | 100 to 1000 nM | > 1000 nM |
| O=C1CCC(N2Cc3cc(C#CCCNCCOCCOCCOCCn4cc(-c5ccc(Nc6ncc7c(n6)-c6ccc(Cl)cc6C(c6c(F)cccc6F)=NC7)cc5)nn4)ccc3C2=O)C(=O)N1 (centres unmarked) [UB-180965] | – | > 1000 nM | 100 to 1000 nM | 100 to 1000 nM |
| O=C1CCC(N2Cc3c(C#CCCOCCN[C@H]4CC[C@@H](n5cc(-c6ccc(Nc7ncc8c(n7)-c7ccc(Cl)cc7C(c7c(F)cccc7F)=NC8)cc6)nn5)CC4)cccc3C2=O)C(=O)N1 (some centres unmarked) [UB-180966] | – | > 1000 nM | > 1000 nM | > 1000 nM |
| CCNC(=O)C#Cc1ccc2c(c1)NC(=O)/C2=C(\Nc1ccc(CNCCOCCOCCC(=O)Nc2ccc3c(c2)CN(C2CCC(=O)NC2=O)C3=O)cc1)c1ccccc1 (centres unmarked) [UB-180967] | – | 100 to 1000 nM | 100 to 1000 nM | > 1000 nM |
| CC[C@@H]1C(=O)N(C)c2cnc(Nc3ccc(-c4nnc(C5CCC(NCCOCCC#Cc6cccc7c6CN(C6CCC(=O)NC6=O)C7=O)CC5)o4)cc3OC)nc2N1C1CCCC1 (some centres unmarked) [UB-180968] | – | 100 to 1000 nM | < 10 nM | – |
| CC[C@@H]1C(=O)N(C)c2cnc(Nc3ccc(-c4cn(CCOCCOC[C@@H](N)CC#Cc5cccc6c5CN(C5CCC(=O)NC5=O)C6=O)nn4)cc3OC)nc2N1C1CCCC1 (some centres unmarked) [UB-180969] | – | 100 to 1000 nM | 10 to 100 nM | – |
| CCNC(=O)C#Cc1ccc2c(c1)NC(=O)/C2=C(\Nc1ccc(CNCCOCCOCCOCCC(=O)N[C@H](C(=O)N2C[C@H](O)C[C@H]2C(=O)NCc2ccc(-c3scnc3C)cc2)C(C)(C)C)cc1)c1ccccc1 [UB-180970] | – | > 1000 nM | 100 to 1000 nM | > 1000 nM |
| CCNC(=O)C#Cc1ccc2c(c1)NC(=O)/C2=C(\Nc1ccc(CNCCOCCOCCOCCC(=O)Nc2cccc3c2CN(C2CCC(=O)NC2=O)C3=O)cc1)c1ccccc1 (centres unmarked) [UB-180971] | – | > 1000 nM | 100 to 1000 nM | > 1000 nM |
| CC[C@@H]1C(=O)N(C)c2cnc(Nc3ccc(-c4cn([C@H]5CC[C@@H](NCCCCCC#Cc6ccc7c(c6)CN(C6CCC(=O)NC6=O)C7=O)CC5)nn4)cc3OC)nc2N1C1CCCC1 (some centres unmarked) [UB-180984] | – | 10 to 100 nM | < 10 nM | – |
| CC[C@@H]1C(=O)N(C)c2cnc(Nc3ccc(C(=O)N[C@H]4CC[C@@H](NCCCCCC#Cc5ccc6c(c5)CN(C5CCC(=O)NC5=O)C6=O)CC4)cc3OC)nc2N1C1CCCC1 (some centres unmarked) [UB-180985] | – | < 10 nM | < 10 nM | – |
| NC(=O)c1ccccc1Nc1nc(Nc2ccc(C3CCN(C(=O)NCCCCNCCC#Cc4ccc5c(c4)CN(C4CCC(=O)NC4=O)C5=O)CC3)cc2)ncc1Cl (centres unmarked) [UB-181206] | – | 100 to 1000 nM | – | 100 to 1000 nM |
| NC(=O)c1ccccc1Nc1nc(Nc2ccc(C3CCN(C(=O)NCCCNCCCC#Cc4ccc5c(c4)CN(C4CCC(=O)NC4=O)C5=O)CC3)cc2)ncc1Cl (centres unmarked) [UB-181207] | – | > 1000 nM | – | > 1000 nM |
| NC(=O)c1ccccc1Nc1nc(Nc2ccc(N3CCN(C(=O)NCCCCNCCC#Cc4ccc5c(c4)CN(C4CCC(=O)NC4=O)C5=O)CC3)cc2)ncc1Cl (centres unmarked) [UB-181208] | – | 10 to 100 nM | – | 100 to 1000 nM |
